Laboratory results published in patent US7960415B2, “Caspase inhibitors and uses thereof” (Vertex Pharmaceutical Incoporated, priority 2003, dated 2011).

Columns and labels:
[1] = system: IL-1β secretion from human whole blood; experiment: Inhibition of IL-1β secretion from whole blood; format: cell-based; settings: human whole blood diluted 1:2, LPS 5 ng/ml, 18 hours, ELISA
Description: Human blood is freshly drawn from healthy donors and diluted 1:2 in PBS. To 500 μl of diluted blood […] of prediluted test compound in RPMI medium and […] LPS (5 ng/ml final concentration on the plate) are added (LPS, Serotype 0111:B4, Sigma L3012). After stimulation for 18 hours supernatants are collected and assayed for IL-1β levels using the appropriate ELISA kit (R&D systems).

rat cortical neurons = experiment: Hypoxia-induced apoptosis of rat cortical neurons; format: cell-based, Wistar rat; settings: Cortical neurone, 95% N2/5% CO2, Cell Death Detection ELISA (DNA fragmentation)
Description: Cortical neurons are dissociated from Wistar rat embryos (E17) by a modification of the procedure of Rogers et al. 1997, Brain Res. Bulletin, 44:131. Briefly, cerebral cortices are isolated aseptically from 15-20 Wistar rat embryos. A cell suspension is prepared by mincing the cerebral cortices and digesting them with papain. Cells are washed with ovomucoid enzyme inhibitor and DNaseI and plated onto Poly-D lysine coated plates in high glucose DMEM containing 10% heat-inactivated fetal calf serum, L-glutamine, penicillin and streptomycin. The yield of neurons is […] per embryo and they are 80-90% viable as assessed by Trypan blue exclusion.
The neurons are cultured in complete medium at 37° C. in a normal atmosphere for 48 hours prior to the hypoxia experiments. For hypoxia, the normal cell medium is replaced by oxygen-depleted serum-free medium. Cells are incubated in an atmosphere of 95% N2/5% CO2 for various lengths of time. Compounds are dissolved in DMSO at 100 mM then diluted in medium and added to the culture from time=0. The level of apoptosis is measured using a Cell Death Detection ELISA kit (Roche) which detects DNA fragmentation. Plates are read at 405 nm. Controls included cells cultured in aerobic conditions in serum-containing medium (+serum) and cells cultured in aerobic conditions in serum-deprived medium (−serum).

Jurkat E6.1 cells = experiment: Anti-Fas induced apoptosis assay; format: cell-based; settings: Homo sapiens, anti-Fas antibody CH-11 10 ng/ml, 16-18 hrs, DNA fragmentation
From the text: Cellular apoptosis may be induced by the binding of Fas ligand (FasL) to its receptor, CD95 (Fas). CD95 is one of a family of related receptors, known as death receptors, which can trigger apoptosis in cells via activation of the caspase enzyme cascade. The process is initiated by the binding of the adapter molecule FADD/MORT-1 to the cytoplasmic domain of the CD-95 receptor-ligand complex. Caspase-8 then binds FADD and becomes activated, initiating a cascade of events that involve the activation of downstream caspases and subsequent cellular apoptosis. Apoptosis can also be induced in cells expressing CD95 e.g., the Jurkat E6.1 T cell lymphoma cell line, using an antibody, rather than FasL, to crosslink the cell surface CD95. Anti-Fas-induced apoptosis is also triggered via the activation of caspase-8. This provides the basis of a cell based assay to screen compounds for inhibition of the caspase-8-mediated apoptotic pathway.
Jurkat E6.1 cells are cultured in complete medium consisting of RPMI-1640 (Sigma No)+10% foetal calf serum (Gibco BRL No. 10099-141)+2 mM L-glutamine (Sigma No. G-7513). The cells are harvested in log phase of growth. 100 ml of cells at 5-8×10^5 cells/ml are transferred to sterile 50 ml Falcon centrifuge tubes and centrifuged for 5 minutes at 100×g at room temperature. The supernatant is removed and the combined cell pellets resuspended in 25 ml of complete medium. The cells are counted and the density adjusted to 2×10^6 cells/ml with complete medium.
The test compound is dissolved in dimethyl sulfoxide (DMSO)(Sigma No. D-2650) to give a 100 mM stock solution. This is diluted to 400 μM in complete medium, then serially diluted in a 96-well plate prior to addition to the cell assay plate.
100 μl of the cell suspension ([…]) is added to each well of a sterile 96-well round-bottomed cluster plate (Costar No. 3790). 50 μl of compound solution at the appropriate dilution and 50 μl of anti-Fas antibody, clone CH-11 (Upstate, Cat No. 1 544 675) at a final concentration of 10 ng/ml, are added to the wells. Control wells are set up minus antibody and minus compound but with a serial dilution of DMSO as vehicle control. The plates are incubated for 16-18 hrs at 37° C. in 5% CO2 and 95% humidity.
Apoptosis of the cells is measured by the quantitation of DNA fragmentation using a ‘Cell Death Detection Assay’ from Roche diagnostics, No. 1544 675. After incubation for 16-18 hrs the assay plates are centrifuged at 100×g at room temperature for 5 minutes. 150 μl of the supernatant are removed and replaced by 150 μl of fresh complete medium. The cells are then harvested and 200 μl of the lysis buffer supplied in the assay kit are added to each well. The cells are triturated to ensure complete lysis and incubated for 30 minutes at 4° C. The plates are then centrifuged at 1900×g for 10 minutes and the supernatants diluted 1:20 in the incubation buffer provided. 100 μl of this solution is then assayed according to the manufacturer's instructions supplied with the kit. OD405 nm is measured 20 minutes after addition of the final substrate in a SPECTRAmax Plus plate reader (Molecular Devices). OD405 nm is plotted versus compound concentration and the IC50 values for the compounds are calculated using the curve-fitting program SOFTmax Pro (Molecular Devices) using the four parameter fit option.

IC50 [1] [nM]	IC50 (Jurkat E6.1 cells) [nM]	SMILES	IC50 (rat cortical neurons) [nM]
< 500	< 500	CC[C@@H](C(=O)N[C@@H](CC(=O)O)C(=O)COc1c(F)c(F)cc(F)c1F)n1cccc(NC(=O)c2ccco2)c1=O [Compound 7, (S,S)-3-(2-{3-[(Furan-2-carbonyl)-amino]-2-oxo-2H-pyridin-1-yl}-butyrylamino)-4-oxo-5-(2,3,5,6-tetrafluoro-phenoxy)-pentanoic acid]	1000 to 10000
< 500	< 500	CC[C@@H](C(=O)N[C@@H](CC(=O)O)C(=O)COc1c(F)c(F)cc(F)c1F)n1cccc(NC(=O)c2ccccc2)c1=O [Compound 11, (S,S)-3-[2-(3-Benzoylamino-2-oxo-2H-pyridin-1-yl)-butyrylamino]-4-oxo-5-(2,3,5,6-tetrafluoro-phenoxy)-pentanoic acid]	< 1000
500 to 5000	< 500	CC[C@@H](C(=O)N[C@@H](CC(=O)O)C(=O)COc1c(F)c(F)cc(F)c1F)n1cc(C(F)(F)F)cc(NC(C)=O)c1=O [Compound 13, (S,S)-3-[2-(3-Acetylamino-2-oxo-5-trifluoromethyl-2H-pyridin-1-yl)-butyrylamino]-4-oxo-5-(2,3,5,6-tetrafluoro-phenoxy)-pentanoic acid]	< 1000
< 500	< 500	CC[C@@H](C(=O)N[C@@H](CC(=O)O)C(=O)COc1c(F)c(F)cc(F)c1F)n1cccc(NC(=O)OC)c1=O [Compound 17, (S,S)-3-[2-(3-Methoxycarbonylamino-2-oxo-2H-pyridin-1-yl)-butyrylamino]-4-oxo-5-(2,3,5,6-tetrafluoro-phenoxy)-pentanoic acid]	< 1000
500 to 5000	< 500	CC[C@@H](C(=O)N[C@@H](CC(=O)O)C(=O)COc1c(F)c(F)cc(F)c1F)n1cccc(NS(=O)(=O)CC)c1=O [Compound 18, (S,S)-3-[2-(3-Ethanesulfonylamino-2-oxo-2H-pyridin-1-yl)-butyrylamino]-4-oxo-5-(2,3,5,6-tetrafluoro-phenoxy)-pentanoic acid]	1000 to 10000
500 to 5000	< 500	CCCS(=O)(=O)Nc1cccn([C@@H](CC)C(=O)N[C@@H](CC(=O)O)C(=O)COc2c(F)c(F)cc(F)c2F)c1=O [Compound 19, (S,S)-4-Oxo-3-{2-[2-oxo-3-(propane-1-sulfonylamino)-2H-pyridin-1-yl]-butyrylamino}-5-(2,3,5,6-tetrafluoro-phenoxy)-pentanoic acid]	1000 to 10000
500 to 5000	< 500	CC[C@@H](C(=O)N[C@@H](CC(=O)O)C(=O)COc1c(F)c(F)cc(F)c1F)n1cc(C(F)(F)F)cc(NS(=O)(=O)CC)c1=O [Compound 22, (S,S)-3-[2-(3-Ethanesulfonylamino-2-oxo-5-trifluoromethyl-2H-pyridin-1-yl)-butyrylamino]-4-oxo-5-(2,3,5,6-tetrafluoro-phenoxy)-pentanoic acid]	< 1000
< 500	< 500	CCC(=O)Nc1cccn([C@@H](CC)C(=O)NC(CC(=O)O)C(=O)CF)c1=O (stereo partly drawn) [Compound 29, (S)-5-Fluoro-4-oxo-3-[2-(2-oxo-3-propionylamino-2H-pyridin-1-yl)-butyrylamino]-pentanoic acid]	1000 to 10000
500 to 5000	500 to 2000	CCC(=O)Nc1cccn([C@@H](CC(C)C)C(=O)NC(CC(=O)O)C(=O)CF)c1=O (stereo partly drawn) [Compound 36, (S)-5-Fluoro-3-[4-methyl-2-(2-oxo-3-propionylamino-2H-pyridin-1-yl)-pentanoylamino]-4-oxo-pentanoic acid]	1000 to 10000
